According to patent publication US6342508B1, “N-hydroxy-2-(Alkyl,Aryl or Heteroaryl sulfanyl, sulfinyl or sulfonyl) 3-substituted alkyl, aryl or heteroarylamides as matrix metalloproteinase inhibitors” (American Cyanamid Company, priority 1997, dated 2002):
Where a name gives a salt, the structure may show the parent alone.

| melting point [°C] | Compound |
| --- | --- |
| 101 | COc1ccc(S(=O)(=O)C2(C(=O)NO)CCN(CCCOc3ccccc3)CC2)cc1 [Example 105, 4-(4-Methoxy-benzenesulfonyl)-1-(3-phenoxy-propyl)-piperidine-4-carboxylic acid hydroxyamide] |
| 192 to 195 | COc1ccc(S(=O)(=O)C2(C(=O)NO)CCN(Cc3ccc(Cl)c(Cl)c3)CC2)cc1 [Example 85, 1-(3,4-dichlorobenzyl)-4-(4-methoxy-benzenesulfonyl)-piperidine-4-carboxylic acid hydroxamide] |
| 62 | CCCCCCCCC(Cc1cccnc1)(C(=O)NO)S(=O)(=O)c1ccc(OC)cc1 (stereo not drawn) [Example 62, 2-(4-Methoxy-benzenesulfonyl)-2-pyridin-3-ylmethyl-decanoic acid hydroxyamide] |
| 67 | CCCCC(Cc1ccc(OCCN(CC)CC)cc1)(C(=O)NO)S(=O)(=O)c1ccc(OC)cc1 (stereo not drawn) [Example 27, 2-[4-(2-Diethylamino-ethoxy)-benzyl]-2-(4-methoxy-benzenesulfonyl)-hexanoic acid hydroxyamide] |
| 206 | COc1ccc(S(=O)(=O)C(C)(Cc2ccc3ncccc3c2)C(=O)NO)cc1 (stereo not drawn) [Example 67, N-Hydroxy-2-(4-methoxy-benzensulfonyl)-2-methyl-3-quinolin-6-yl-propionamide] |
| 85 | CCN1CCC(C(=O)NO)(S(=O)(=O)c2ccc(OC)cc2)CC1 [Example 95, 1-Ethyl-4-(4-methoxy-benzenesulfonyl)-piperidine-4-carboxylic acid hydroxyamide] |
| 161 to 163 | CC#CCC(CC#CC)(C(=O)NO)S(=O)(=O)c1ccc(F)cc1 [Example 78, 2-(4-Fluoro-benzenesulfonyl)-2-but-2-ynyl-hex-4-ynoic acid hydroxyamide] |
| 68 | COc1ccc(S(=O)(=O)C(CCCCOc2ccccc2)(Cc2cccnc2)C(=O)NO)cc1 (stereo not drawn) [Example 68, 2-(4-Methoxy-benzenesulfonyl)-6-phenoxy-2-pyridin-3-ylmethyl-hexanoic acid hydroxyamide] |
| 156 | C#CCC(CC#C)(C(=O)NO)S(=O)(=O)c1ccc(OC)cc1 [Example 73, 2-(4-Methoxy-benzenesulfonyl)-2-prop-2-ynyl-pent-4-ynoic acid hydroxyamide] |
| 114 | COc1ccc(S(=O)(=O)C2(C(=O)NO)CCN(Cc3ccc(OCCN4CCCCC4)cc3)CC2)cc1 (as salt: HCl) [Example 109, 4-(4-Methoxy-benzenesulfonyl)-1-[4-(2-piperidin-1-yl-ethoxy)-benzyl]-piperidine-4-carboxylic acid hydroxyamide] |
| 88 | COc1ccc(SC(C)(Cc2ccccc2)C(=O)NO)cc1 (stereo not drawn) [Example 1, N-Hydroxy-2-(4-methoxy-phenylsulfanyl)-2-methyl-3-phenyl-propionamide] |
| 93 to 96 | COc1ccc(S(=O)(=O)C(CC=C(C)C)(CC=C(C)C)C(=O)NO)cc1 [Example 79, 2-(4-Methoxy-benzenesulfonyl)-5-methyl-2-(3-methyl-but-2-enyl)-hex-4-enoic acid hydroxyamide] |
| 114 | CCCCCCCCCCCCC(C(=O)NO)S(=O)(=O)c1ccc(OC)cc1 (stereo not drawn) [Example 11, 2-(4-Methoxy-benzenesulfonyl)-tetradecanoic hydroxyamide] |
| 162 to 164 | COc1ccc(S(=O)(=O)C(C)(CC=Cc2ccccc2)C(=O)NO)cc1 (stereo not drawn) [Example 56, 2-(4-methoxy-benzenesulfonyl)-2-methyl-5-phenyl-pent-4-enoic acid hydroxyamide] |
| 163 | COc1ccc([S+]([O-])C(C(=O)NO)C(C)C)cc1 (stereo not drawn) [Example 7, N-Hydroxy-2-(4-methoxy-benzenesulfinyl)-3-methyl-butyramide] |
| 70 | CCCCC(Cc1cccnc1)(C(=O)NO)S(=O)(=O)c1ccc(OC)cc1 (stereo not drawn) [Example 70, 2-(4-Methoxy-benzenesulfonyl)-2-pyridin-3-ylmethyl-hexanoic acid hydroxyamide] |
| 93 to 96 | COc1ccc(S(=O)(=O)C(C)(Cc2ccccc2Br)C(=O)NO)cc1 (stereo not drawn) [Example 55, 3-(2-Bromo-phenyl)-N-hydroxy-2-(4-methoxy-benzenesulfonyl)-2-methyl-propionamide] |
| 74 | COc1ccc(S(=O)(=O)C(C)(Cc2cccc(OCCN3CCCCC3)c2)C(=O)NO)cc1 (stereo not drawn) [Example 22, N-Hydroxy-2-(4-methoxy-benzenesulfonyl)-2-methyl-3-[3-(2-piperidin-1-yl-ethoxy)-phenyl]-propionamide] |

| melting point [°C] | Compound |
| --- | --- |
| 146 to 148 | COc1ccc(S(=O)(=O)C(C)(CCCCN2C(=O)c3ccccc3C2=O)C(=O)NO)cc1 (stereo not drawn) [Example 31, 6-(1,3-Dioxo-1,3-dihydro-isoindol-2-yl)-2(4-methoxy-benzenesulfonyl)-2-methyl-hexanoic acid hydroxyamide] |
| 56 to 59 | CCN(CC)CCOc1ccc(CC(C)(C(=O)NO)S(=O)(=O)c2ccc(OC)cc2)cc1 (stereo not drawn) (as salt: HCl) [Example 21, N-Hydroxy-2-(4-methoxy-benzenesulfonyl)-2-methyl-3-[4-(2-N,N-diethylamino-ethoxy)-phenyl]-propionamide] |
| 168 to 172 | COc1ccc(S(=O)(=O)C2(C(=O)NO)CCN(CCOc3ccccc3)CC2)cc1 (as salt: HCl) [Example 107, 4-(4-methoxy-benzenesulfonyl)-1-(2-phenoxy-ethyl)-piperidine-4-carboxylic acid hydroxyamide] |
| 130 | COc1ccc(S(=O)(=O)C2(C(=O)NO)CCN(Cc3cccc(OC)c3)CC2)cc1 [Example 84, 4-(4-methoxy-benzenesulfonyl)-1-(3-methoxy-benzyl)-piperidine-4-carboxylic acid hydroxyamide] |
| 65 | CCCCCCC(Cc1ccc(OCCN2CCCCCC2)cc1)(C(=O)NO)S(=O)(=O)c1ccc(OC)cc1 (stereo not drawn) [Example 36, 2-[4-(2-Azepan-1-yl-ethoxy)-benzyl]-2-(4-Methoxy-benzenesulfonyl)-octanoic acid hydroxyamide] |
| 205 | COc1ccc(S(=O)(=O)C2(C(=O)NO)CCN(CCc3ccccc3)CC2)cc1 (as salt: HCl) [Example 103, 4-(4-methoxy-benzenesulfonyl)-1-(2-phenyl-ethyl)-piperidine-4-carboxylic acid hydroxyamide] |
| 89 to 91 | COc1ccc(S(=O)(=O)C2(C(=O)NO)CCCC2)cc1 [Example 54, 1-(4-Methoxy-benzenesulfonyl)-cyclopentanecarboxylic acid hydroxyamide] |
| 143 | COc1ccc(S(=O)(=O)C2(C(=O)NO)CCN(CCCc3ccccc3)CC2)cc1 [Example 91, 4-(4-methoxy-benzenesulfonyl)-1-(3-phenyl-propyl)-piperidine-4-carboxylic acid hydroxyamide] |
| 161 to 163 | COc1ccc(S(=O)(=O)C(Cc2ccc3ccccc3c2)C(=O)NO)cc1 (stereo not drawn) [Example 40, N-Hydroxy-2-(4-methoxy-benzenesulfonyl)-3-naphthalen-2-yl-propionamide] |
| 180 | COc1ccc(S(=O)(=O)C(Cc2ccccc2)C(=O)NO)cc1 (stereo not drawn) [Example 9, N-Hydroxy-2-(4-methoxy-benzenesulfonyl)-3-phenyl-propionamide] |
| 98 | COc1ccc(S(=O)(=O)C(C)(Cc2ccc(OCCN(C(C)C)C(C)C)cc2)C(=O)NO)cc1 (stereo not drawn) (as salt: HCl) [Example 20, N-Hydroxy-2-(4-methoxy-benzenesulfonyl)-2-methyl-3-[4-(2-N,N-diisopropylamino-ethoxy)-phenyl]-propionamide] |
| 130 | CCCCC(C(=O)NO)S(=O)(=O)c1ccc(OC)cc1 (stereo not drawn) [Example 10, 2-(4-Methoxy-benzenesulfonyl)-hexanoic acid hydroxyamide] |
| 176 to 177 | COc1ccc(S(=O)(=O)C2(C(=O)NO)CCN(Cc3ccc(C)cc3)CC2)cc1 [Example 86, 4-(4-methoxy-benzenesulfonyl)-1-(4-methylbenzyl)-piperidine-4-carboxylic acid hydroxamide] |
| 108 | COc1ccc([S+]([O-])C(C)(CC=C(C)C)C(=O)NO)cc1 (stereo not drawn) [Example 6, 2-(4-Methoxy-benzenesulfinyl)-2,5-dimethyl-hex-4-enoic acid hydroxyamide] |
| 122 | COc1ccc(S(=O)(=O)C(C)(Cc2ccc(OCCCN3CCN(c4cccc(Cl)c4)CC3)cc2)C(=O)NO)cc1 (stereo not drawn) (as salt: HCl) [Example 23, 3-(4-{3-[4-(3-Chloro-phenyl)-piperazin-1-yl]-propoxy}-phenyl)-N-hydroxy-2-(4-methoxy-benzenesulfonyl)-2-methyl-propionamide] |
| 89 | COc1ccc(S(=O)(=O)C2(C(=O)NO)CCN(C)CC2)cc1 [Example 97, 1-Methyl-4-(4-methoxy-benzenesulfonyl)-piperidine-4-carboxylic acid hydroxyamide] |
| 112 | Cn1ccnc1S(=O)(=O)C(C)(Cc1ccc(-c2ccccc2)cc1)C(=O)NO (stereo not drawn) [Example 47, 3-Biphenyl-4-yl-2-methyl-2-(1-methyl-1H-imidazole-2-sulfonyl)-propionic acid hydroxyamide] |

| Compound | melting point [°C] |
| --- | --- |
| CCCCOc1ccc(S(=O)(=O)C2(C(=O)NO)CCN(Cc3ccccc3)CC2)cc1 [Example 98, 1-Benzyl-4-(4-butoxy-benzenesulfonyl)-piperidine-4-carboxylic acid hydroxyamide] | 144 |
| CCCCOc1ccc(S(=O)(=O)C2(C(=O)NO)CCN(CCCOc3ccccc3)CC2)cc1 [Example 106, 4-(4-n-Butoxy-benzenesulfonyl)-1-(3-phenoxy-propyl)-piperidine-4-carboxylic acid hydroxyamide] | 84 |
| CCCCOc1ccc(S(=O)(=O)C2(C(=O)NO)CCN(CCOc3ccccc3)CC2)cc1 (as salt: HCl) [Example 108, 4-(4-n-Butoxy-benzenesulfonyl)-1-(2-phenoxy-ethyl)-piperidine-4-carboxylic acid hydroxyamide] | 112 |
| CCCCOc1ccc(S(=O)(=O)C2(C(=O)NO)CCN(Cc3ccc(F)cc3)CC2)cc1 [Example 100, 1-(4-Fluoro-benzyl)-4-(4-butoxy-benzenesulfonyl)-piperidine-4-carboxylic acid hydroxyamide] | 112 |
